Assays:
Test in all cases: Kirby-Bauer disk diffusion susceptibility test
[1] = test system: S. aureus; format: cell-based
Description: (§1) Bacterial strains, from clinical origin, were supplied by the National Center for Microbiology, Institute of Health Carlos III (Majadahonda, Madrid). They are detailed in Table I.
(§2) Bacterial cells suspension in sterile saline was prepared from a culture of 24-72 h, depending on bacterial species, in Mueller-Hinton Agar with 5% sheep blood. Each suspension was adjusted to a fixed size inoculum of 1-5×10^8 CFU/ml with a spectrophotometer (Ferraro, M J National Committee for Clinical Laboratory Standards. 2000).
(§3) Kirby-Bauer disk diffusion susceptibility test protocol was utilized to determine the sensitivity or resistance of pathogenic bacteria against the compounds and others antibiotics. The absence of growth around the disks is an indirect measure of the ability of this compound to inhibit an organism (Kirby, W. et al., Antibiotics Annu. 1956-1957:892). After 18 to 72 hours of incubation at […], with or without CO2, under aerobic or anaerobic conditions, depending on the bacterial species, halo of growth inhibition were obtained and evaluated.
(§4) Interpretation of susceptibility and resistance was based on the presence or absence of a zone of inhibition surrounding the disk. Kirby-Bauer disk diffusion susceptibility test is a common method which uses antibiotic-impregnated wafers to test whether bacteria are affected by antibiotics. The size of the zone of inhibition depends on how effective the antibiotic is at stopping the growth of the bacterium. A stronger antibiotic will create a larger zone, because a lower concentration of the antibiotic is enough to stop growth.

[2] = test system: E. faecalis; format: cell-based
Description: as §1, §2, §3, §4

[3] = test system: S. epidermidis; format: cell-based
Description: as §1, §2, §3, §4

[4] = test system: P. aeruginosa; format: cell-based
Description: as §1, §2, §3, §4

[5] = test system: A. baumannii; format: cell-based
Description: as §1, §2, §3, §4

[6] = test system: N. cyriacigeorgica; format: cell-based
Description: as §1, §2, §3, §4

[7] = test system: E. faecium; format: cell-based
Description: as §1, §2, §3, §4

[8] = test system: E. coli; format: cell-based
Description: as §1, §2, §3, §4

[9] = test system: T. pulmonis; format: cell-based, Tsukamurella pulmonis
Description: as §1, §2, §3, §4

[10] = test system: N. carnea; format: cell-based, Nocardia carnea
Description: as §1, §2, §3, §4

[11] = test system: B. cereus; format: cell-based, Bacillus cereus
Description: as §1, §2, §3, §4

[12] = test system: M. abscessus; format: cell-based, Mycobacterium abscessus; settings: M. abscessus strain 690, isolation year 2012
Description: as §1, §2, §3, §4

[13] = test system: M. chelonae; format: cell-based; settings: M. chelonae strain 870, isolation year 2011
Description: as §1, §2, §3, §4

[14] = test system: M. fortuitum; format: cell-based; settings: M. fortuitum strain 1080, isolation year 2011
Description: as §1, §2, §3, §4

[15] = S. aureus strain 282, isolation year 2005
[16] = S. aureus strain 890, isolation year 2010
[17] = E. faecalis strain 52, isolation year 2006
[18] = E. faecalis strain 1052, isolation year 2008
[19] = S. epidermidis strain 188, isolation year 2009
[20] = S. epidermidis strain 982, isolation year 2006
[21] = P. aeruginosa strain 96, isolation year 2014
[22] = P. aeruginosa strain 115, isolation year 2013
[23] = A. baumannii strain 300, isolation year 2001
[24] = A. baumannii strain 1301, isolation year 2009
[25] = N cyriacigeorgica strain 199, isolation year 2005
[26] = N. cyriacigeorgica strain 30, isolation year 2005
[27] = E. faecium strain 26, isolation year 2012
[28] = E. faecium strain 209, isolation year 2015
[29] = E. coli strain 29, isolation year 2012
[30] = E. coli strain 305, isolation year 2008
[31] = T. pulmonis strain 40, isolation year 2015
[32] = T. pulmonis strain 1991, isolation year 2009
[33] = N. carnea strain 40, isolation year 2011
[34] = N. carnea strain 769, isolation year 2009
[35] = B. cereus strain 25, isolation year 2014
[36] = B. cereus strain 182, isolation year 2013
Also: key: I = intermediate activity; S = susceptibility; R = Resistance.

NCC[C@H](O)C(=O)N[C@@H]1C[C@H](N)[C@@H](O[C@H]2O[C@H](CN)[C@@H](O)[C@H](O)[C@H]2O)[C@H](O)[C@H]1O[C@H]1O[C@H](CO)[C@@H](O)[C@H](N)[C@H]1O [AMK, Amikacin]
Sensitivity or resistance of the strain to the antibiotic [1, 15]: S | Sensitivity or resistance of the strain to the antibiotic [1, 16]: S | Sensitivity or resistance of the strain to the antibiotic [2, 17]: S | Sensitivity or resistance of the strain to the antibiotic [2, 18]: S | Sensitivity or resistance of the strain to the antibiotic [3, 19]: S | Sensitivity or resistance of the strain to the antibiotic [3, 20]: S | Sensitivity or resistance of the strain to the antibiotic [4, 21]: S | Sensitivity or resistance of the strain to the antibiotic [4, 22]: S | Sensitivity or resistance of the strain to the antibiotic [5, 23]: R | Sensitivity or resistance of the strain to the antibiotic [5, 24]: S | Sensitivity or resistance of the strain to the antibiotic [6, 25]: R | Sensitivity or resistance of the strain to the antibiotic [6, 26]: S | Sensitivity or resistance of the strain to the antibiotic [7, 27]: S | Sensitivity or resistance of the strain to the antibiotic [7, 28]: R | Sensitivity or resistance of the strain to the antibiotic [8, 29]: S | Sensitivity or resistance of the strain to the antibiotic [8, 30]: S | Sensitivity or resistance of the strain to the antibiotic [9, 31]: R | Sensitivity or resistance of the strain to the antibiotic [9, 32]: S | Sensitivity or resistance of the strain to the antibiotic [10, 33]: R | Sensitivity or resistance of the strain to the antibiotic [10, 34]: S

CO/N=C(\C(=O)N[C@@H]1C(=O)N2C(C(=O)O)=C(CSc3nc(=O)c(O)nn3C)CS[C@H]12)c1csc(N)n1 [CEF, Ceftriazone]
Sensitivity or resistance of the strain to the antibiotic [4, 21]: R | Sensitivity or resistance of the strain to the antibiotic [5, 23]: R | Sensitivity or resistance of the strain to the antibiotic [5, 24]: R

CCC[C@@H]1C[C@@H](C(=O)N[C@@H]([C@H]2O[C@H](SC)[C@H](O)[C@@H](O)[C@H]2O)[C@H](C)Cl)N(C)C1 [CLI, Clindamycin]
Sensitivity or resistance of the strain to the antibiotic [1, 15]: R | Sensitivity or resistance of the strain to the antibiotic [1, 16]: R | Sensitivity or resistance of the strain to the antibiotic [3, 19]: S | Sensitivity or resistance of the strain to the antibiotic [3, 20]: R | Sensitivity or resistance of the strain to the antibiotic [11, 35]: R | Sensitivity or resistance of the strain to the antibiotic [11, 36]: R

CO/N=C(\C(=O)N[C@@H]1C(=O)N2C(C(=O)O)=C(COC(C)=O)CS[C@H]12)c1csc(N)n1 [CTX, Cefotaxime]
Sensitivity or resistance of the strain to the antibiotic [2, 17]: R | Sensitivity or resistance of the strain to the antibiotic [2, 18]: R | Sensitivity or resistance of the strain to the antibiotic [4, 21]: S | Sensitivity or resistance of the strain to the antibiotic [4, 22]: S | Sensitivity or resistance of the strain to the antibiotic [6, 25]: R | Sensitivity or resistance of the strain to the antibiotic [6, 26]: S | Sensitivity or resistance of the strain to the antibiotic [7, 27]: R | Sensitivity or resistance of the strain to the antibiotic [7, 28]: R | Sensitivity or resistance of the strain to the antibiotic [8, 29]: S | Sensitivity or resistance of the strain to the antibiotic [8, 30]: R | Sensitivity or resistance of the strain to the antibiotic [9, 31]: R | Sensitivity or resistance of the strain to the antibiotic [9, 32]: S | Sensitivity or resistance of the strain to the antibiotic [10, 33]: S | Sensitivity or resistance of the strain to the antibiotic [10, 34]: S

CC[C@H]1OC(=O)[C@H](C)[C@@H](O[C@H]2C[C@@](C)(OC)[C@@H](O)[C@H](C)O2)[C@H](C)[C@@H](O[C@@H]2O[C@H](C)C[C@H](N(C)C)[C@H]2O)[C@](C)(O)C[C@@H](C)C(=O)[C@H](C)[C@@H](O)[C@]1(C)O [ERI, Erythromycin]
Sensitivity or resistance of the strain to the antibiotic [12]: S | Sensitivity or resistance of the strain to the antibiotic [1, 15]: R | Sensitivity or resistance of the strain to the antibiotic [1, 16]: R | Sensitivity or resistance of the strain to the antibiotic [13]: R | Sensitivity or resistance of the strain to the antibiotic [3, 19]: S | Sensitivity or resistance of the strain to the antibiotic [3, 20]: R | Sensitivity or resistance of the strain to the antibiotic [6, 25]: R | Sensitivity or resistance of the strain to the antibiotic [6, 26]: R | Sensitivity or resistance of the strain to the antibiotic [8, 29]: S | Sensitivity or resistance of the strain to the antibiotic [8, 30]: S | Sensitivity or resistance of the strain to the antibiotic [14]: R | Sensitivity or resistance of the strain to the antibiotic [11, 35]: R | Sensitivity or resistance of the strain to the antibiotic [11, 36]: R | Sensitivity or resistance of the strain to the antibiotic [9, 31]: R | Sensitivity or resistance of the strain to the antibiotic [9, 32]: S | Sensitivity or resistance of the strain to the antibiotic [10, 33]: R | Sensitivity or resistance of the strain to the antibiotic [10, 34]: R

C[C@@H](O)[C@H]1C(=O)N2C(C(=O)O)=C(S[C@@H]3CN[C@H](C(=O)N(C)C)C3)[C@H](C)[C@H]12 [MER, Meropenem]
Sensitivity or resistance of the strain to the antibiotic [4, 21]: R | Sensitivity or resistance of the strain to the antibiotic [5, 23]: R | Sensitivity or resistance of the strain to the antibiotic [5, 24]: S

— patent US11008295B2, “Compounds having antiinfective, antitumoral and antifungal activity” (priority 2017, dated 2021)
